Results reported in patent publication US20170143701A1, “CARBOHYDRATE METABOLISM-AMELIORATING AGENT” (SUNTORY HOLDINGS LIMITED, priority 2014, published 2017).

What was measured:
NCI-H716 cells = assay: In vitro GLP-1 secretion-accelerating action: amount of active GLP-1 secreted (ELISA); format: cell-based; settings: Table 4, Experiment 4, 1 hour; for Significant difference (p < 0.05) vs control group, amount of active GLP-1 secreted: 10 mM, Student's t-test; for Amount of active GLP-1 secreted (relative value to control group as 100), average value: cyclic dipeptide 10 mM with 10 μM Sitagliptin phosphate, group with no cyclic dipeptide = 100
How it was run: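 NCI-H716 cells were cultured 48 h, then exposed 1 hour to cyclic dipeptide at 10 mM final with 10 μM sitagliptin in PBS(+). Active GLP-1 in the supernatant was measured by ELISA and expressed relative to the no-dipeptide group (=100).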

C57/BL6J mice = assay: In vivo plasma GLP-1 level-increasing action: plasma active GLP-1 level (ELISA) after oral administration; settings: Table 7, Experiment 2, 10 mg/kg oral; for Significant difference (p < 0.05) vs control group, plasma active GLP-1 level: 30 minutes, Student's t-test; for Plasma active GLP-1 level (relative value to control group as 100), average value: blood 30 minutes after, 0.5% CMC-Na group = 100
How it was run: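 Male C57BL/6J mice, habituated 1 week, deprived of food 5.5 h and water 2 h, then dosed orally with compound at 10 mg/kg in 0.5% CMC-Na. Vena cava blood taken 30 min later under anaesthesia, with heparin and sitagliptin added; plasma active GLP-1 by ELISA, relative to vehicle group set at 100.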

## C[C@@H]1NC(=O)[C@@H]2CCCN2C1=O [compound 187, cyclo-L-alanyl-proline]
NCI-H716 cells
  Significant difference (p < 0.05) vs control group, amount of active GLP-1 secreted: Yes
  Amount of active GLP-1 secreted (relative value to control group as 100), average value: 1186
C57/BL6J mice
  Significant difference (p < 0.05) vs control group, plasma active GLP-1 level: Yes
  Plasma active GLP-1 level (relative value to control group as 100), average value: 217

## NC(=O)CC[C@@H]1NC(=O)[C@H](Cc2cnc[nH]2)NC1=O [compound 191, cyclo-glutaminyl-histidine]
NCI-H716 cells
  Significant difference (p < 0.05) vs control group, amount of active GLP-1 secreted: Yes
  Amount of active GLP-1 secreted (relative value to control group as 100), average value: 743
C57/BL6J mice
  Significant difference (p < 0.05) vs control group, plasma active GLP-1 level: Yes
  Plasma active GLP-1 level (relative value to control group as 100), average value: 247

## O=C(O)C[C@@H]1NC(=O)[C@H](CO)NC1=O [compound 193, cyclo-aspartyl-serine]
NCI-H716 cells
  Significant difference (p < 0.05) vs control group, amount of active GLP-1 secreted: Yes
  Amount of active GLP-1 secreted (relative value to control group as 100), average value: 509
C57/BL6J mice
  Significant difference (p < 0.05) vs control group, plasma active GLP-1 level: Yes
  Plasma active GLP-1 level (relative value to control group as 100), average value: 266

## CC(C)[C@@H]1NC(=O)[C@H](CCCN=C(N)N)NC1=O [compound 194, cyclo-arginyl-valine]
NCI-H716 cells
  Significant difference (p < 0.05) vs control group, amount of active GLP-1 secreted: Yes
  Amount of active GLP-1 secreted (relative value to control group as 100), average value: 498
C57/BL6J mice
  Significant difference (p < 0.05) vs control group, plasma active GLP-1 level: Yes
  Plasma active GLP-1 level (relative value to control group as 100), average value: 237

## CSCC[C@@H]1NC(=O)[C@H](CCCNC(=N)N)NC1=O [compound 199, cyclo-methionyl-arginine]
NCI-H716 cells
  Significant difference (p < 0.05) vs control group, amount of active GLP-1 secreted: Yes
  Amount of active GLP-1 secreted (relative value to control group as 100), average value: 652
C57/BL6J mice
  Significant difference (p < 0.05) vs control group, plasma active GLP-1 level: Yes
  Plasma active GLP-1 level (relative value to control group as 100), average value: 217

## NC(N)=NCCCC1NC(=O)C(CC(=O)O)NC1=O (centres unmarked) [compound 207, cyclo-arginyl-aspartic acid]
NCI-H716 cells
  Significant difference (p < 0.05) vs control group, amount of active GLP-1 secreted: Yes
  Amount of active GLP-1 secreted (relative value to control group as 100), average value: 1255
C57/BL6J mice
  Significant difference (p < 0.05) vs control group, plasma active GLP-1 level: Yes
  Plasma active GLP-1 level (relative value to control group as 100), average value: 266

## NC(N)=NCCC[C@@H]1NC(=O)[C@@H]2CCCN2C1=O [compound 209, cyclo-arginyl-proline]
NCI-H716 cells
  Significant difference (p < 0.05) vs control group, amount of active GLP-1 secreted: Yes
  Amount of active GLP-1 secreted (relative value to control group as 100), average value: 441
C57/BL6J mice
  Significant difference (p < 0.05) vs control group, plasma active GLP-1 level: Yes
  Plasma active GLP-1 level (relative value to control group as 100), average value: 315

## NC(=O)CC1NC(=O)CNC1=O (centres unmarked) [compound 215, cyclo-asparaginyl-glycine]
NCI-H716 cells
  Significant difference (p < 0.05) vs control group, amount of active GLP-1 secreted: Yes
  Amount of active GLP-1 secreted (relative value to control group as 100), average value: 611
C57/BL6J mice
  Significant difference (p < 0.05) vs control group, plasma active GLP-1 level: Yes
  Plasma active GLP-1 level (relative value to control group as 100), average value: 305
